This note sets out measurements from patent US10493064B2, “IBS microbiota and uses thereof” (priority 2014, dated 2019).

The MIC90 is an inhibitory concentration at the 90% level, which refers to growth in some studies and to a panel of isolates in others. Low values mean higher susceptibility, high ones lower susceptibility. A word on the MIC50: it is the lowest concentration that inhibits either 50% of growth or 50% of the strains tested, depending on the study.

One series relates to Staphylococcus isolates. The series is described as follows: Broth microdilution susceptibility (MIC) testing of Staphylococcus isolates cultured from skin swabs. To be noted: for resistance of S. aureus isolates: S. aureus isolates from skin swabs, OL or DB phases; for changes in MIC90 values: return to baseline by end of study; for MIC: read-out: maximum MIC concentration observed. It counts as cell-based.

In series [1] the test system is Staphylococcus isolates cultured from stool. The series is described as follows: Susceptibility (MIC) testing of stool culture isolates: Staphylococcus. Format: cell-based. As to conditions: end of Treatment 2 (OL) and end of Treatment 3 (DBR); returned to baseline in follow-up.
The subject of the next series is Bacteroides. The series is described as follows: Susceptibility (MIC) testing of stool culture isolates: Bacteroides. It counts as cell-based.
A further series concerns S. aureus. The series is described as follows: Skin swab culture for S. aureus in IBS-D subjects. Format: in vivo, human. To be noted: OL or DB phases. The method, then: For the skin swab study, skin swab collection was performed for a subset of subjects (approximately 10% of the study population) at each of the following visits: Visits 3 and 4 (baseline and after two weeks of open-label rifaximin 550 mg TID [Treatment 2], respectively), Visits 6 and 7 (prior to and immediately after two weeks of double-blind retreatment [Treatment 3] with rifaximin 550 mg TID or placebo), and Visit 11 (End of Study). For each subject in this study, skin swabs were collected from the peri-rectum, nares, palms of hands, and forearms, and swabs were shipped immediately to the microbiology laboratory at ambient temperature in media-containing tubes. Skin swab cultures were conducted to isolate all Staphylococcus species.
Upon receipt at the microbiology laboratory, each skin swab was plated onto tryptic soy agar containing 5% sheep's blood and Columbia-colistin nalidixic acid agar with 5% sheep's blood to select for Gram-positive colonies. […] The inoculated plates were incubated at 35° C. in a 5-7% CO2 incubator, with plates examined at 24 and 48 h for bacterial growth.

Series [2] can be described thus: Phase 3 repeat treatment study in IBS patients, infection rates. To be noted: following single or repeat treatment courses in IBS patients. Format: in vivo, human. The protocol: Subjects entered a Screening/Treatment 1 Phase which included a 10 (±3) day treatment, during which the subjects received single-blind placebo TID and completed a daily symptom diary. Following the Screening/Treatment 1 Phase, eligible subjects entered the Treatment 2 Phase and received open-label rifaximin 550 mg TID for 2 weeks with a 4 week treatment-free follow-up. At the end of the Treatment 2 Phase, subjects who achieved treatment success in both IBS-related abdominal pain and stool consistency during at least 2 weeks of the 4 week follow-up period were classified as responders and entered a treatment-free Maintenance Phase 1. Non-responders in the Treatment 2 Phase were withdrawn from the study to provide an enriched population of subjects who respond to treatment with rifaximin.
The treatment-free Maintenance Phase 1 varied in time (up to 18 weeks in total) and depended upon the time of symptom recurrence. […] Subjects with recurrence entered Treatment 3 Phase, also referred to as the Double-Blind (DB) Repeat Treatment Phase. In this phase, subjects were randomized 1:1 to receive either rifaximin 550 mg TID or placebo TID for 2 weeks with a 4-week treatment-free follow-up. All subjects from the Treatment 3 Phase then entered a 6-week maintenance phase (Maintenance Phase 2). […]

The next series deals with stool microbiota. In words: 16S rRNA gene sequencing of stool microbiota in IBS-D subjects (richness, diversity, evenness, family abundance). It counts as in vivo, human. To be noted: for Shannon diversity: DB rifaximin group. The method, then:
Stool aliquots from the selected subjects were shipped frozen for genomic sequencing. The samples were thawed at the time of testing. DNA was extracted from stool. Next-generation sequencing technology (Illumina HiSeq2500) was used to sequence the V4 region of the 16S ribosomal RNA. In order to do this, a 286 base pair (bp) region was amplified […] first using Illumina's adapter information, and then a second round of demultiplexing was performed. Approximately 4.6 billion total ([…] paired ends) sequences were generated from the selected stool samples. […] There were 172 separate families identified from subjects randomly selected. […] This list also included families of bacteria that contained known pathogens. The Shannon Diversity Index was used to determine the diversity (which takes into account not only the number of bacterial families present, but also the relative abundance of those families) of the stool microbiota at each visit.

The next series concerns C. difficile. In words: Susceptibility testing of stool culture isolates: C. difficile. Format: cell-based, Clostridium difficile.
[3] abbreviates: skin swab, OL Week 2, following rifaximin treatment.
Where [4] appears, read: skin swab, OL follow-up Week 7 to Week 10.
The mark [5] stands for this setting: skin swab, OL follow-up Week 11 to Week 14.

Values after ≈ are worked out from the molar mass of the structure shown. Where two headings read alike, the source gives them in different places.

`O=C(O)c1cn(C2CC2)c2cc(N3CCNCC3)c(F)cc2c1=O` [ciprofloxacin]: in the series with Staphylococcus isolates (some skin swab isolates, did not substantially change with rifaximin treatment or time), the “resistance of Staphylococcus isolates” value is “low levels of resistance”.
As for `CO[C@H]1/C=C/O[C@@]2(C)Oc3c(C)c(O)c4c(O)c(c(/C=N/N5CCN(C)CC5)c(O)c4c3C2=O)NC(=O)/C(C)=C\C=C\[C@H](C)[C@H](O)[C@@H](C)[C@@H](O)[C@@H](C)[C@H](OC(C)=O)[C@@H]1C` [rifampin], in the series with Staphylococcus isolates, the “changes in MIC50 values” was “no changes”. In addition, the resistant isolates in the series with Staphylococcus isolates (DB placebo treated subjects, Day 1, peri-rectum) is on record as 1 isolates; with Staphylococcus isolates (DB placebo treated subjects, Week 2, peri-rectum), 2 isolates; in the series on Staphylococcus isolates (DB placebo treated subjects, treatment period, all from peri-rectum), 3 isolates; in the series on Staphylococcus isolates (skin swab, OL follow-up Week 15 to Week 32) it was “No rifampin resistant isolates”. For the same compound, in the series with Staphylococcus isolates (OL Last Assessment Visits between Week 7 and Week 32, […]), the “isolates with MIC value of ≥4 μg/mL” value came out at 16 isolates. Besides, in the series with Staphylococcus isolates, the “resistance of S. aureus isolates” value is on record as “no S. aureus isolates showed resistance”. Moreover, the MIC90 is ≤ 0.015 µg/mL with Staphylococcus isolates (Staphylococcus, 24 h, […], DB placebo subjects, all Visits from Day 1 to DB Last Assessment); ≤ 0.015 µg/mL against Staphylococcus isolates (Staphylococcus, 24 h, […], OL phase, Treatment 2 visit (Day 1), prior to rifaximin); 16 µg/mL (≈ 19.4 µM) in the series on Staphylococcus isolates (Staphylococcus, 336 h, […], OL phase, EOT2 Visit (Week 2), after rifaximin 550 mg TID 2 weeks); 0.5 µg/mL (≈ 0.608 µM) in the series on Staphylococcus isolates (Staphylococcus, […], OL Last Assessment Visits, Weeks 7 to 10); ≤ 0.015 µg/mL against Staphylococcus isolates (Staphylococcus, […], OL Last Assessment Visits, from Week 11 onward). Moreover, the MIC50 in the series with Staphylococcus isolates (Staphylococcus, 24 h, […], OL phase, Treatment 2 visit (Day 1), prior to rifaximin, read-out: MIC50) is ≤ 0.015 µg/mL; in the series on Staphylococcus isolates (Staphylococcus, 336 h, […], OL phase, EOT2 Visit (Week 2), after rifaximin 550 mg TID 2 weeks, read-out: MIC50), ≤ 0.015 µg/mL; in the series on Staphylococcus isolates ([…], DB placebo subjects, all Visits from Day 1 to DB Last Assessment) it was ≤ 0.015 µg/mL. This compound also showed an MIC range in the series on Staphylococcus isolates ([…], OL phase, Day 1 of Treatment 2) of 0.015 to 0.12 µg/mL. The “changes in MIC90 values” in the series with Staphylococcus isolates ([…]) is on record as “Transient changes”. In the series on Staphylococcus isolates (skin swab, OL Week 2), the “resistant isolates cultured from the left lower arm swabs” value worked out at 3 isolates. Further, in the series with Staphylococcus isolates (skin swab, OL Week 2), the “resistant isolates cultured from the palms of the hands” value came out at 4 isolates. In addition, the “resistant isolates on the peri-rectum” value with Staphylococcus isolates (skin swab, OL Week 2) was found to be 32 isolates. Further, in the series on Staphylococcus isolates (setting [3]), the “isolates with a MIC value ≥4 μg/mL (resistant)” value came out at 39 isolates. Further, the “isolates with an MIC value of <4 μg/mL (susceptible)” value in the series with Staphylococcus isolates (setting [3]) stood at 297 isolates. The “resistant isolates (count)” value in the series on Staphylococcus isolates (setting [4]) was “Seven”; with Staphylococcus isolates (setting [5]) it was 7 isolates. The “resistant isolates, % of isolates” value in the series on Staphylococcus isolates (setting [4]) is given as 9.5%; with Staphylococcus isolates (setting [5]), 2.8%. In addition, the “change in MIC values” in series [1] is given as “Transient increases”.
With `CO[C@H]1/C=C/O[C@@]2(C)Oc3c(C)c(O)c4c(O)c(c5c(nc6cc(C)ccn65)c4c3C2=O)NC(=O)/C(C)=C\C=C\[C@H](C)[C@H](O)[C@@H](C)[C@@H](O)[C@@H](C)[C@H](OC(C)=O)[C@@H]1C` [rifaximin], in the series on Bacteroides, the “increases in the MIC50 or MIC90” value is listed as “within the range of MICs reported both at baseline”. Also, the “change in the number of S. aureus isolates” value in the series on S. aureus is “no increase”. Besides, the infection rates entry in series [2] was “no increased infection rates”. The “evenness in the microbiota” value in the series on stool microbiota (DB phase) is recorded as “unchanged”. Besides, the “richness of the microbiota” value in the series on stool microbiota (DB phase, rifaximin treated subjects, Week 2, reversed in follow-up) is recorded as “decreased”. Further, the Shannon diversity with stool microbiota (after the 2 week treatment period) worked out at 1.698; in the series with stool microbiota (baseline of DB phase), 1.786. In the series on stool microbiota (OL phase, baseline to Week 2), the “decrease in richness of the microbiota” value is recorded as 1.235 families. Also, the “change in Shannon diversity of the stool microbiota” value in the series on stool microbiota (OL phase, rifaximin 550 mg TID 2 weeks) is “no substantial change”. For the same compound, the “evenness of the microbiota” value with stool microbiota (OL phase, rifaximin treatment) was “not affected”. For the same compound, in the series with C. difficile (all C. difficile cultured from stool), the susceptibility result was “highly susceptible”. In the series on C. difficile (isolates identified in stool samples), the “resistance of C. difficile isolates” value is reported as “none of these isolates demonstrated rifaximin resistance”. The “resistance of S. aureus isolates” value with Staphylococcus isolates was “no S. aureus isolates showed resistance”. Besides, the MIC90 against Staphylococcus isolates (Staphylococcus, 24 h, skin swab isolates, DB phase Day 1 (Treatment 3), subjects randomized to placebo) was 0.03 µg/mL (≈ 0.0382 µM); against Staphylococcus isolates (Staphylococcus, 24 h, skin swab isolates, DB phase Day 1, subjects randomized to rifaximin), 0.03 µg/mL (≈ 0.0382 µM); against Staphylococcus isolates (Staphylococcus, 24 h, skin swab staphylococcal isolates, OL phase, Treatment 2 visit (Day 1), prior to rifaximin), 0.03 µg/mL (≈ 0.0382 µM); in the series on Staphylococcus isolates (Staphylococcus, 336 h, skin swab isolates, OL phase, EOT2 Visit (Week 2), after rifaximin 550 mg TID 2 weeks) it was 32 µg/mL (≈ 40.7 µM); in the series with Staphylococcus isolates (Staphylococcus, skin swab isolates, DB rifaximin subjects, EOT3 Visit (Week 2)) it was 32 µg/mL (≈ 40.7 µM); with Staphylococcus isolates (Staphylococcus, skin swab isolates, DB rifaximin subjects, Week 15 to Week 22) it was 0.5 µg/mL (≈ 0.636 µM). Besides, the MIC90 against Staphylococcus isolates (Staphylococcus, skin swab isolates, DB rifaximin subjects, between Week 11 and Week 14) amounted to 64 µg/mL (≈ 81.4 µM); with Staphylococcus isolates (Staphylococcus, skin swab isolates, DB rifaximin subjects, between Week 23 and Week 38) it was 0.06 µg/mL (≈ 0.0763 µM); with Staphylococcus isolates (Staphylococcus, skin swab isolates, OL Last Assessment Visits, Weeks 7 to 10), 2 µg/mL (≈ 2.54 µM); against Staphylococcus isolates (Staphylococcus, skin swab isolates, OL Last Assessment Visits, from Week 11 onward) it was 0.03 µg/mL (≈ 0.0382 µM). The MIC50 was 0.015 µg/mL (≈ 0.0191 µM) with Staphylococcus isolates (Staphylococcus, 24 h, skin swab staphylococcal isolates, OL phase, Treatment 2 visit (Day 1), prior to rifaximin, read-out: MIC50); 0.015 µg/mL (≈ 0.0191 µM) with Staphylococcus isolates (Staphylococcus, 336 h, skin swab isolates, OL phase, EOT2 Visit (Week 2), after rifaximin 550 mg TID 2 weeks, read-out: MIC50); 0.015 to 0.06 µg/mL (≈ 0.0191 to 0.0763 µM) in the series with Staphylococcus isolates (Staphylococcus, skin swab isolates, DB rifaximin subjects, DB Last Assessment Visits, read-out: MIC50); 0.015 µg/mL (≈ 0.0191 µM) in the series with Staphylococcus isolates (skin swab isolates, DB phase Day 1 (Treatment 3), subjects randomized to placebo); 0.015 µg/mL (≈ 0.0191 µM) with Staphylococcus isolates (skin swab isolates, DB phase Day 1, subjects randomized to rifaximin). The MIC with Staphylococcus isolates (Staphylococcus, skin swab isolates, OL Last Assessment Visits, after decrease with time off rifaximin) is 0.06 µg/mL (≈ 0.0763 µM); in the series with Staphylococcus isolates (Staphylococcus, skin swab isolates, OL Last Assessment Visits, before decrease with time off rifaximin) it was 64 µg/mL (≈ 81.4 µM). Further, the “changes in MIC50 values” in the series on Staphylococcus isolates (skin swab staphylococcal isolates, overall with rifaximin treatment) is “no changes”. For the same compound, the “changes in MIC90 values” in the series on Staphylococcus isolates (skin swab staphylococcal isolates, overall) is given as “Transient changes”. The “change in MIC values” in series [1] is “Transient increases”.
